Read-outs that look alike come from different tables or passages of the source.

One test has as its target orexin-1 (Homo sapiens (Human), UniProt O43613). In words: Intracellular calcium measurement (FLIPR), CHO cells expressing human orexin-1 receptor, 3 nM orexin-A. Format: cell-based. The note with it: read-out: IC50 OX1. The gist of the method:
(§1)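 CHO cells stably expressing each receptor were loaded with 3 μM fluo-4 AM plus 5 mM probenecid for 50 min at 37 °C, then equilibrated 30 min at rt.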

Another test deals with human orexin-2 receptor (Homo sapiens (Human), UniProt O43614). In words: Intracellular calcium measurement (FLIPR), CHO cells expressing human orexin-2 receptor, 3 nM orexin-A. It is filed as cell-based. The note with it: read-out: IC50 OX2. The gist of the method:
as §1
A general note: Calcium flux is commonly read through the fluorescence of an indicator in the cells.

Setting [1] is: CHO cells expressing human orexin-1 receptor, FLIPR, 3 nM orexin-A, geometric mean if determined several times.
Setting [2] is: CHO cells expressing human orexin-2 receptor, FLIPR, 3 nM orexin-A, geometric mean if determined several times.

orexin-1, sequence (O43613 whole entry): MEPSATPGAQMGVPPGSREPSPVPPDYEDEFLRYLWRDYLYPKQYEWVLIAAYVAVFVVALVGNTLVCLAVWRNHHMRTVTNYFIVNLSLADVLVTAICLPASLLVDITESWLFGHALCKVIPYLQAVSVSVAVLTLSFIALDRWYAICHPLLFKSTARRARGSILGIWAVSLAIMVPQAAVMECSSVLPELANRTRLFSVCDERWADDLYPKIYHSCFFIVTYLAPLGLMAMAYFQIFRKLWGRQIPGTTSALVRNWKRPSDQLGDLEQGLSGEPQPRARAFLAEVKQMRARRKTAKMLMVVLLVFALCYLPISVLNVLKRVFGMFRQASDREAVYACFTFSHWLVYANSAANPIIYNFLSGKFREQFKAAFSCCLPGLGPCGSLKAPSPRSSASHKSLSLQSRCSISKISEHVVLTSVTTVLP
human orexin-2 receptor, sequence (O43614 whole entry): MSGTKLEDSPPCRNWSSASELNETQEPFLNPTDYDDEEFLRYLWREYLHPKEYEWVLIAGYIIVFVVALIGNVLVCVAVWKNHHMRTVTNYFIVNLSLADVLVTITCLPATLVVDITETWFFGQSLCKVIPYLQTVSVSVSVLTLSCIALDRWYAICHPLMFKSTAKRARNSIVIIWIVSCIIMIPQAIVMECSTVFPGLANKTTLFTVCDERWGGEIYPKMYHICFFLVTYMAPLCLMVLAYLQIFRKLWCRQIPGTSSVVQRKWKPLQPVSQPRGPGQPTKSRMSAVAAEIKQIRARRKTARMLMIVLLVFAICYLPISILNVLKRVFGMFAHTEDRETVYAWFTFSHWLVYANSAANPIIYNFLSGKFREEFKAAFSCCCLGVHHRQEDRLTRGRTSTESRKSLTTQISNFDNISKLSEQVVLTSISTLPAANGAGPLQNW

As a reminder, the IC50 is the concentration that gives 50% inhibition. For `CCc1ncccc1-c1noc([C@@H]2CCCN2C(=O)c2cc(C)ccc2-n2nccn2)n1` [compound 53, {(S)-2-[3-(2-Ethyl-pyridin-3-yl)-[1,2,4]oxadiazol-5-yl]-pyrrolidin-1-yl}-(5-methyl-2-[1,2,3]triazol-2-yl-phenyl)-methanone], the IC50 on orexin-1 (setting [1]) was 315 nM; at human orexin-2 receptor (setting [2]) it was 97 nM.

On to `COc1ccc(-c2nnc([C@@H]3CCCN3C(=O)c3cc(C)ccc3-n3nccn3)[nH]2)cc1` [compound 514, {(S)-2-[5-(4-Methoxy-phenyl)-4H-[1,2,4]triazol-3-yl]-pyrrolidin-1-yl}-(5-methyl-2-[1,2,3]triazol-2-yl-phenyl)-methanone], for which the IC50 is over 6560 nM at orexin-1 (setting [1]) and 3490 nM at human orexin-2 receptor (setting [2]).

In the case of `CCc1ccccc1-c1nnc([C@@H]2CCCN2C(=O)c2cc(C)ccc2-n2nccn2)o1` [Example 452, {(S)-2-[5-(2-Ethyl-phenyl)-[1,3,4]oxadiazol-2-yl]-pyrrolidin-1-yl}-(5-methyl-2-[1,2,3]triazol-2-yl-phenyl)-methanone], the IC50 at orexin-1 (setting [1]) turned out to be 249 nM; on human orexin-2 receptor (setting [2]), 211 nM.

On to `COc1cc(C(=O)N2CCC[C@H]2c2nnc(-c3ccccc3OC)[nH]2)c(-n2nccn2)cc1Cl` [compound 467], for which the 50% inhibitory concentration (IC50) on orexin-1 (setting [1]) was determined as 63 nM; at human orexin-2 receptor (setting [2]), 10 nM.

As for `Cc1cc(-n2nccn2)c(C(=O)N2CCC[C@@]2(C)c2nnc(-c3ccccc3OC(F)(F)F)[nH]2)cc1Cl` [compound 545], the IC50 is 4 nM on orexin-1 (setting [1]) and 8 nM on human orexin-2 receptor.

On to `Cc1ccc(C(=O)N2CCC[C@H]2c2nc(-c3cccc(Cl)c3C)no2)c(-n2nccn2)c1C` [compound 129], for which the IC50 on orexin-1 was found to be 419 nM; on human orexin-2 receptor (setting [2]), 287 nM.

Turning to `Cc1ccc(-n2nccn2)c(C(=O)N2CCC[C@H]2c2nc(-c3cccc(F)c3)no2)c1` [compound 14, {(S)-2-[3-(3-Fluoro-phenyl)-[1,2,4]oxadiazol-5-yl]-pyrrolidin-1-yl}-(5-methyl-2-[1,2,3]triazol-2-yl-phenyl)-methanone], the IC50 at orexin-1 (setting [1]) was 392 nM; on human orexin-2 receptor (setting [2]) it was 295 nM.

On to `COc1c(F)cccc1-c1nnc([C@@H]2CCCN2C(=O)c2ccc(C)cc2-n2nccn2)[nH]1` [compound 477, {(S)-2-[5-(3-Fluoro-2-methoxy-phenyl)-4H-[1,2,4]triazol-3-yl]-pyrrolidin-1-yl}-(4-methyl-2-[1,2,3]triazol-2-yl-phenyl)-methanone], for which the results for the IC50 on orexin-1 (setting [1]) and on human orexin-2 receptor (setting [2]) were 55 nM and 15 nM, respectively.

Turning to `Cc1ccc(-n2nccn2)c(C(=O)N2CCC[C@H]2c2nc(-c3ccccc3Cl)no2)n1` [compound 242], the half-maximal inhibitory concentration (IC50) was determined as 4360 nM at orexin-1 (setting [1]) and 1440 nM at human orexin-2 receptor (setting [2]).

For `Cc1ccccc1-c1noc([C@@H]2CCCN2C(=O)c2ccoc2)n1` [Ref 6], the IC50 on orexin-1 (setting [1]) is over 8500 nM; on human orexin-2 receptor (setting [2]), over 10000 nM.

`COc1ccccc1-c1nnc([C@@H]2CCCN2C(=O)c2ccc(C)cc2-n2nccn2)[nH]1` [compound 471, {(S)-2-[5-(2-Methoxy-phenyl)-4H-[1,2,4]triazol-3-yl]-pyrrolidin-1-yl}-(4-methyl-2-[1,2,3]triazol-2-yl-phenyl)-methanone]: the half-inhibitory concentration (IC50) at orexin-1 (setting [1]) came out at 49 nM; on human orexin-2 receptor (setting [2]), 127 nM.

For `CCc1ccccc1-c1nc([C@@H]2CCCN2C(=O)c2ccc(Cl)cc2-n2nccn2)no1` [compound 398], the IC50 at orexin-1 came to 33 nM; at human orexin-2 receptor (setting [2]) it was 18 nM.

As to `CCOc1ccccc1-c1noc([C@@H]2CCCN2C(=O)c2ccc(C)cc2-n2nccn2)n1` [compound 256, {(S)-2-[3-(2-Ethoxy-phenyl)-[1,2,4]oxadiazol-5-yl]-pyrrolidin-1-yl}-(4-methyl-2-[1,2,3]triazol-2-yl-phenyl)-methanone], the IC50 at orexin-1 (setting [1]) worked out at 43 nM; on human orexin-2 receptor (setting [2]), 20 nM.

`COc1cc(C(=O)N2CCC[C@H]2c2nnc(-c3cccc(Cl)c3C)o2)c(-n2nccn2)cc1C` [compound 445]: the IC50 stood at 157 nM at orexin-1 (setting [1]) and 9 nM at human orexin-2 receptor.

For the molecule `CCOc1ccccc1-c1noc([C@@H]2CCCN2C(=O)c2cc(Cl)ccc2-n2nccn2)n1` [compound 255], the half-maximal inhibitory concentration (IC50) at orexin-1 (setting [1]) turned out to be 36 nM; on human orexin-2 receptor (setting [2]), 8 nM.

Regarding `O=C(c1cccc(F)c1-c1ccn[nH]1)N1CCC[C@H]1c1nc(-c2ccccc2C(F)(F)F)no1` [compound 183, [3-Fluoro-2-(2H-pyrazol-3-yl)-phenyl]-{(S)-2-[3-(2-trifluoromethyl-phenyl)-[1,2,4]oxadiazol-5-yl]-pyrrolidin-1-yl}-methanone], the results for the IC50 on orexin-1 (setting [1]) and at human orexin-2 receptor (setting [2]) were 190 nM and 91 nM, respectively.

Turning to `O=C(c1[nH]cnc1-c1ccccc1)N1CCC[C@H]1c1nc(-c2ccccc2OC(F)(F)F)no1` [compound 153, (5-Phenyl-3H-imidazol-4-yl)-{(S)-2-[3-(2-trifluoromethoxy-phenyl)-[1,2,4]oxadiazol-5-yl]-pyrrolidin-1-yl}-methanone], the IC50 on orexin-1 (setting [1]) came to 781 nM; at human orexin-2 receptor (setting [2]), 460 nM.

On to `Cc1cc(C(=O)N2CCC[C@H]2c2nc(-c3cccc(Cl)c3C)no2)c(-n2cccn2)cc1C` [compound 115], for which the 50% inhibitory concentration (IC50) came to 78 nM on orexin-1 (setting [1]) and 6 nM on human orexin-2 receptor (setting [2]).

As for `Cc1c(Cl)cccc1-c1noc([C@@H]2CCCN2C(=O)c2cc(F)c(F)cc2-n2nccn2)n1` [compound 110], the IC50 is 1690 nM on orexin-1 (setting [1]) and 159 nM at human orexin-2 receptor (setting [2]).

On to `COc1ccccc1-c1noc([C@@H]2CCCN2C(=O)c2nc(C)ccc2-n2nccn2)n1` [compound 235, {(S)-2-[3-(2-Methoxy-phenyl)-[1,2,4]oxadiazol-5-yl]-pyrrolidin-1-yl}-(6-methyl-3-[1,2,3]triazol-2-yl-pyridin-2-yl)-methanone], for which the half-inhibitory concentration (IC50) on orexin-1 (setting [1]) is 361 nM; on human orexin-2 receptor (setting [2]), 992 nM.

Turning to “[3-(2-Chloro-phenyl)-5-methyl-isoxazol-4-yl]-{(S)-2-[3-(2-trifluoromethoxy-phenyl)-[1,2,4]oxadiazol-5-yl]-pyrrolidin-1-yl}-methanone [Reference compound 10, reference compound]”, the values for the IC50 on orexin-1 (setting [1]) and on human orexin-2 receptor (setting [2]) were 1040 nM and 150 nM, respectively.

In the case of `Cc1ccc(-n2nccn2)c(C(=O)N2CCC[C@H]2c2nnc(-c3ccccc3C)o2)c1` [compound 441, (5-Methyl-2-[1,2,3]triazol-2-yl-phenyl)-[(S)-2-(5-o-tolyl-[1,3,4]oxadiazol-2-yl)-pyrrolidin-1-yl]-methanone], the IC50 was 946 nM at orexin-1 (setting [1]) and 105 nM on human orexin-2 receptor (setting [2]).

For `Cc1c(Cl)cccc1-c1noc([C@@H]2CCCN2C(=O)c2ccc(F)cc2-n2nccn2)n1` [compound 112], the IC50 at orexin-1 (setting [1]) was 833 nM; at human orexin-2 receptor, 121 nM.

As for `Cc1ccc(-n2nccn2)c(C(=O)N2CCC[C@H]2c2noc(-c3n[nH]c4ccccc34)n2)c1` [compound 312, {(S)-2-[5-(1H-Indazol-3-yl)-[1,2,4]oxadiazol-3-yl]-pyrrolidin-1-yl}-(5-methyl-2-[1,2,3]triazol-2-yl-phenyl)-methanone], the IC50 on orexin-1 (setting [1]) was found to be 204 nM; on human orexin-2 receptor (setting [2]), 89 nM.

Take `COc1cc(C(=O)N2CCC[C@H]2c2nc(-c3ccccc3Cl)no2)c(-n2nccn2)cc1C` [compound 239]: the IC50 at orexin-1 came out at 378 nM; at human orexin-2 receptor (setting [2]), 24 nM.

In the case of `Cc1ccc(-n2nccn2)c(C(=O)N2CCC[C@H]2c2nc(-c3cn(C)c4ncccc34)no2)c1` [compound 51, {(S)-2-[3-(1-Methyl-1H-pyrrolo[2,3-b]pyridin-3-yl)-[1,2,4]oxadiazol-5-yl]-pyrrolidin-1-yl}-(5-methyl-2-[1,2,3]triazol-2-yl-phenyl)-methanone], the IC50 at orexin-1 (setting [1]) came to 15 nM; on human orexin-2 receptor (setting [2]), 11 nM.

Turning to `COc1cc(C(=O)N2CCC[C@H]2c2nnc(-c3ccccc3OC)[nH]2)c(-n2nccn2)cc1C` [compound 468, (5-Methoxy-4-methyl-2-[1,2,3]triazol-2-yl-phenyl)-{(S)-2-[5-(2-methoxy-phenyl)-4H-[1,2,4]triazol-3-yl]-pyrrolidin-1-yl}-methanone], the half-maximal inhibitory concentration (IC50) is 84 nM at orexin-1 (setting [1]) and 35 nM at human orexin-2 receptor (setting [2]).

Regarding `Cc1cccc(-c2sc(C)nc2C(=O)N2CCC[C@H]2c2nc(-c3cccc(Cl)c3C)no2)c1` [compound 126], the half-maximal inhibitory concentration (IC50) on orexin-1 (setting [1]) is 221 nM; on human orexin-2 receptor (setting [2]) it was 118 nM.

Regarding `Cc1ccc(-n2nccn2)c(C(=O)N2CCC[C@H]2c2noc(-c3cccc(C(F)(F)F)n3)n2)c1` [compound 314, (5-Methyl-2-[1,2,3]triazol-2-yl-phenyl)-{(S)-2-[5-(6-trifluoromethyl-pyridin-2-yl)-[1,2,4]oxadiazol-3-yl]-pyrrolidin-1-yl}-methanone], the figures for the concentration for half-maximal inhibition (IC50) at orexin-1 (setting [1]) and at human orexin-2 receptor (setting [2]) were 249 nM and 314 nM, respectively.

Regarding `C[C@@]1(c2nnc(-c3ccccc3OC(F)(F)F)[nH]2)CCCN1C(=O)c1cc(Cl)ccc1-n1nccn1` [compound 547], the 50% inhibitory concentration (IC50) at orexin-1 (setting [1]) was 25 nM; at human orexin-2 receptor (setting [2]), 34 nM.

On to `Cc1ccc(C(=O)N2CCC[C@H]2c2noc(-c3cccc(F)c3C)n2)c(-n2nccn2)c1` [compound 337, {(S)-2-[5-(3-Fluoro-2-methyl-phenyl)-[1,2,4]oxadiazol-3-yl]-pyrrolidin-1-yl}-(4-methyl-2-[1,2,3]triazol-2-yl-phenyl)-methanone], for which the IC50 came to 112 nM on orexin-1 (setting [1]) and 14 nM on human orexin-2 receptor (setting [2]).

As to `COc1ccc(C)c(-c2nc([C@@H]3CCCN3C(=O)c3cc(C)c(C)cc3-n3nccn3)no2)c1` [compound 383, (4,5-Dimethyl-2-[1,2,3]triazol-2-yl-phenyl)-{(S)-2-[5-(5-methoxy-2-methyl-phenyl)-[1,2,4]oxadiazol-3-yl]-pyrrolidin-1-yl}-methanone], the concentration for half-maximal inhibition (IC50) at orexin-1 (setting [1]) was found to be 30 nM; at human orexin-2 receptor (setting [2]) it was 4 nM.

Turning to `Cc1onc(-c2ccccc2Cl)c1C(=O)N1CCC[C@H]1c1nc(-c2ccccc2OC(F)(F)F)no1` [Ref 10], the half-inhibitory concentration (IC50) worked out at 782 nM at orexin-1 (setting [1]) and 2190 nM at human orexin-2 receptor (setting [2]).

As to `Cc1ccc(-n2nccn2)c(C(=O)N2CCC[C@H]2c2cc(-c3cccc(Cl)c3C)on2)c1` [compound 431], the results for the IC50 on orexin-1 (setting [1]) and at human orexin-2 receptor (setting [2]) were 19 nM and 2 nM, respectively.

The values are drawn from US9493446B2, “Orexin receptor antagonists which are [ortho bi-(hetero-)aryl]-[2-(meta bi-(hetero-)aryl)-pyrrolidin-1-yl]-methanone derivatives” (Actelion Pharmaceuticals Ltd, priority 2012, dated 2016).
